# Experimental data published in PubChem BioAssay (NCI).
# Values joined by “and” are separate entries in the source; they are usually repeats but may differ in a detail not shown here. Equal values may be shown once.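 Interpolation was linear, between the two tested concentrations surrounding the appropriate level; five concentrations were tested over 48 hours in 96-well plates. GI50 = concentration required for 50% inhibition of growth. At the TGI there is no net growth.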
# Tests used:
# Experiment in all cases: NCI tumour cell line growth inhibition, 48 h
# [1] = system: COLO 205 colon
# [2] = system: HCC-2998 colon
# [3] = system: HS 578T breast
# [4] = system: IGROV1 ovarian
# [5] = system: K-562 leukemia
# [6] = system: NCI/ADR-RES ovarian
# [7] = system: SF-295 CNS
# [8] = system: SW-620 colon
# [9] = system: T-47D breast
# [10] = system: TK-10 renal
SMILES,GI50 [1],TGI [1],GI50 [2],TGI [2],GI50 [3],TGI [3],GI50 [4],TGI [4],GI50 [5],TGI [5],GI50 [6],TGI [6],GI50 [7],TGI [7],GI50 [8],TGI [8],GI50 [9],TGI [9],GI50 [10],TGI [10]
C=C=[CH][Sn]([c]1ccccc1)([c]1ccccc1)[c]1ccccc1,1520 nM,2870 nM,1760 nM,3.36 µM,2060 nM,7.37 µM,1630 nM,4.47 µM,722 nM,3.3 µM,2190 nM,5.94 µM,1960 nM,3.89 µM,821 nM,2.17 µM,1290 nM,2.82 µM,1650 nM,3.1 µM
COc1ccc(-n2sc(=O)n(Cc3ccc(COC(=O)C(C)c4ccc(CC(C)C)cc4)cc3)c2=O)cc1 (stereo unspecified),1100 nM,2600 nM,7990 nM,17.2 µM,4770 nM,13.8 µM,1400 nM,4.74 µM,1430 nM,10.4 µM,7500 nM,20 µM,10600 nM,24.1 µM,900 nM,1.82 µM,1320 nM,5.54 µM,997 nM,2.17 µM
CCN1C(=O)N(CC)C2C1NN=c1s/c(=C\c3ccccc3)c(=O)n12 (stereo unspecified),193 nM,657 nM,282 nM,> 100 µM,146 nM,> 100 µM,298 nM,> 100 µM,50.5 nM,> 100 µM,79.9 nM,> 100 µM,66.3 nM,> 100 µM,80.8 nM,> 100 µM,519 nM,> 100 µM,32800 nM,> 100 µM
CSc1ccc(C2=NN(C(=O)c3ccc(N)cc3)C(c3ccc(F)cc3)C2)cc1 (stereo unspecified),7450 nM,22700 nM,8790 nM,21.8 µM,21400 nM,55.8 µM,4370 nM,25.5 µM,3690 nM,11.2 µM,16100 nM,38.5 µM,13200 nM,27.9 µM,6270 nM,26.3 µM,6450 nM,27.6 µM,7500 nM,26.1 µM
N#Cc1c(Oc2ccc(F)c(NC(=O)Cc3cccc(C(F)(F)F)c3)c2)ccc2nc(NC(=O)C3CC3)sc12,29.9 nM,2630 nM,581 nM,> 100 µM,534 nM,3.33 µM,940 nM,> 44.7 µM,385 nM,> 100 µM,1280 nM,> 100 µM,579 nM,> 100 µM,585 nM,> 100 µM,3220 nM,> 100 µM,1860 nM,> 100 µM
COc1ccc(-c2cncn2-c2cc(OC)c(OC)c(OC)c2)cc1F,< 12.2 nM,,10.1 nM,13.4 µM,332 nM,> 100 µM,< 21.2 nM,19 µM,< 10 nM,> 100 µM,10.8 nM,> 100 µM,< 14.2 nM,,< 17.7 nM,> 100 µM,< 10 nM,> 100 µM,18400 nM,> 100 µM
OC(c1ccccc1)c1c(-c2ccccc2)oc(-c2ccccc2)c1C(O)c1ccccc1 (stereo unspecified),,19400 nM,,33 µM,,52.7 µM,,28.1 µM,,13.9 µM,,24.9 µM,,29.3 µM,,34.1 µM,,23.3 µM,,29 µM
CCc1ccccc1-n1c(N)c(C#N)c(-c2ccc(OC)c(OC)c2)c(C#N)c1=O,> 100000 nM,> 100000 nM,31900 nM,> 100 µM,15500 nM,41.3 µM,19500 nM,60 µM,> 100000 nM,> 100 µM,31900 nM,> 100 µM,22400 nM,61.1 µM,33300 nM,> 100 µM,27200 nM,> 100 µM,18000 nM,39.4 µM
COc1ccc(NC(=O)O[C@H]2[C@H](O[C@H]3[C@@H](O)COC(O[C@H]4C[C@H]5[C@@H]6CC=C7C[C@@H](O)CC[C@]7(C)[C@H]6CC[C@]5(C)[C@H]4[C@H](C)C(=O)CCC(C)C)[C@@H]3OC(C)=O)OC[C@@H](O)[C@@H]2O)cc1 (stereo partly specified),10.5 nM,36.3 nM,566 nM,32.7 µM,< 10 nM,0.0116 µM,33.1 nM,> 100 µM,< 10 nM,19.6 µM,3780 nM,> 100 µM,< 10 nM,< 0.01 µM,< 10 nM,0.0664 µM,< 10 nM,14.7 µM,96.6 nM,23.8 µM
COc1cc(C2C(C#N)=C(N)Oc3cc4c(cc32)OCO4)cc2c1OCO2 (stereo unspecified),308 nM,1020 nM,352 nM,6.11 µM,328 nM,> 100 µM,724 nM,> 100 µM,68 nM,> 100 µM,103 nM,0.553 µM,209 nM,> 100 µM,276 nM,> 100 µM,3380 nM,> 100 µM,2360 nM,> 79.8 µM
CC(=O)N[C@@H](Cc1ccc(OP(=O)(O)O)cc1)C(=O)N[C@H]1CCC(=O)N2CCC[C@@H](C(=O)NCc3ccc(O)cc3)N2C1=O,> 25000 nM,> 25000 nM,> 25000 nM,> 25 µM,> 25000 nM,> 25 µM,> 25000 nM,> 25 µM,> 25000 nM,> 25 µM,> 25000 nM,> 25 µM,> 25000 nM,> 25 µM,> 25000 nM,> 25 µM,> 25000 nM,> 25 µM,> 25000 nM,> 25 µM
N#CSCC(=O)c1ccc(Cl)cc1,2650 nM,7940 nM,12100 nM,27.8 µM,2900 nM,16.3 µM,1330 nM,6.6 µM,974 nM,> 40.3 µM,3110 nM,11 µM,2890 nM,13.5 µM,2130 nM,12.2 µM,7840 nM,67.9 µM,3210 nM,13.6 µM
Cc1c(N2C(=O)/C(=C\c3ccc(N(C)C)cc3)N=C2c2ccccc2)c(=O)n(-c2ccccc2)n1C,43700 nM,> 100000 nM,> 100000 nM,> 100 µM,> 100000 nM,> 100 µM,24100 nM,> 100 µM,40900 nM,> 100 µM,99500 nM,> 100 µM,92000 nM,> 100 µM,> 100000 nM,> 100 µM,19300 nM,> 87.2 µM,> 100000 nM,> 100 µM
Cc1cc2nc3c4ccccc4n(CCN(C)C)c3nc2cc1C,1290 nM,4490 nM,1470 nM,4.13 µM,1570 nM,5.76 µM,1280 nM,10.2 µM,1550 nM,10.7 µM,1390 nM,12.7 µM,1390 nM,9.84 µM,540 nM,9.59 µM,2800 nM,12.6 µM,2980 nM,14.1 µM
C[C@@H](Oc1cc(-c2cnn(C3CC4(CCCNC4)C3)c2)cnc1N)c1c(Cl)ccc(F)c1Cl (stereo partly specified),384 nM,1500 nM,1510 nM,3.14 µM,1630 nM,4.47 µM,2990 nM,13.6 µM,265 nM,1.41 µM,2250 nM,5.59 µM,247 nM,2.13 µM,597 nM,2.36 µM,1610 nM,3.42 µM,2020 nM,5.47 µM
CC(=O)OCC(=O)C1(O)C(C)CC2C3C=C(C)C4=Cc5c(cnn5-c5ccccc5)CC4(C)C3C(O)CC21C (stereo unspecified),1720 nM,3260 nM,1920 nM,3.66 µM,1170 nM,4.75 µM,1990 nM,6.48 µM,500 nM,> 100 µM,1940 nM,8.73 µM,624 nM,2.63 µM,1700 nM,3.42 µM,2630 nM,9.39 µM,2130 nM,9.73 µM
O=C1c2ccccc2C(=O)c2c(NC(=O)c3ccc4c5c(ncnc35)-c3ccccc3C4=O)cccc21,,> 100000 nM,,> 100 µM,,> 100 µM,,> 100 µM,,> 100 µM,,> 100 µM,,64 µM,,> 100 µM,,> 100 µM,,47.6 µM
COC(=O)Nc1nc2ccc(Sc3ccccc3)cc2[nH]1,188 nM,533 nM,220 nM,3.03 µM,260 nM,11.2 µM,441 nM,18.3 µM,48.2 nM,,67.4 nM,0.461 µM,152 nM,19.9 µM,107 nM,> 48.3 µM,436 nM,> 81.2 µM,1270 nM,17.3 µM
O=C(NO)c1cnc(N2CCN(S(=O)(=O)c3ccc4ccccc4c3)CC2)nc1,56.4 nM,294 nM,110 nM,0.32 µM,101 nM,> 47.3 µM,162 nM,0.78 µM,36.3 nM,> 40.9 µM,32.4 nM,,53.2 nM,0.268 µM,34.9 nM,,22.7 nM,1.79 µM,43.2 nM,0.454 µM
CC[C@@]1(OC(=O)CN)C(=O)OCc2c1cc1n(c2=O)Cc2cc3c(N)c4c(cc3nc2-1)OCO4,41.9 nM and 110 nM,961 nM,11.6 nM,0.969 µM,232 nM,,18 nM,0.342 µM,2.54 nM,0.508 µM,0.145 nM,0.0193 µM,< 0.1 nM,,2.43 nM,> 100 µM,,> 100 µM,16.7 nM and 104 nM,> 100 µM
NC(=O)NC(=O)C1CCCCC1C(=O)O (stereo unspecified),,> 100000 nM,,,,> 100 µM,,> 100 µM,,> 100 µM,,> 100 µM,,> 100 µM,,> 100 µM,,> 100 µM,,> 100 µM
COc1cccc(Nc2nccc(Nc3ccc4[nH]ncc4c3)n2)c1,1570 nM,3260 nM,1790 nM,3.36 µM,1790 nM,4.61 µM,,,1300 nM,3.89 µM,1540 nM,4.36 µM,1660 nM,3.17 µM,2410 nM,6.13 µM,1050 nM,3.12 µM,1420 nM,2.82 µM
C=C1C(=O)OC2CC3(C)OC3C3OC3C3=CC(OC3=O)C12 (stereo unspecified),539 nM,1250 nM,17400 nM,33.9 µM,19300 nM,68.7 µM,21200 nM,40.7 µM,2540 nM,6.85 µM,27200 nM,69.3 µM,37400 nM,> 100 µM,1350 nM,3.04 µM,1170 nM,4.45 µM,1910 nM,3.39 µM
Oc1[nH]c2ccc(Cl)cc2c1/C=c1/ccc2c(c1)N=C(c1cc(F)cc(F)c1)N=2,4280 nM,> 100000 nM,7550 nM,> 100 µM,2900 nM,> 100 µM,6210 nM,> 100 µM,3120 nM,> 100 µM,2320 nM,5.87 µM,,,,,4470 nM,> 100 µM,7220 nM,> 100 µM
Cc1cccnc1CNC1CC(NCc2ncccc2C)CC(NCc2ncccc2C)C1 (stereo unspecified),2030 nM,4250 nM,,,3390 nM,16.2 µM,3890 nM,40.3 µM,2380 nM,5.56 µM,19300 nM,> 100 µM,3120 nM,8.6 µM,2040 nM,5.8 µM,1940 nM,3.89 µM,3490 nM,11.3 µM
CCS/C(Nc1ccccc1)=C(\C#N)C(=O)N/N=C/c1ccc(Cl)cc1Cl,,,5470 nM,> 100 µM,2740 nM,98.7 µM,6460 nM,> 100 µM,855 nM,> 100 µM,3160 nM,> 100 µM,2890 nM,> 100 µM,4650 nM,> 100 µM,4030 nM,> 100 µM,10200 nM,> 100 µM
